Results as given in BindingDB's records for doi:10.1021/jm0205696 (Abbott Laboratories, 2003).

Target: T1, Tyrosine-protein phosphatase non-receptor type 2 (Homo sapiens, UniProt P17706)
T1 sequence (P17706 whole entry): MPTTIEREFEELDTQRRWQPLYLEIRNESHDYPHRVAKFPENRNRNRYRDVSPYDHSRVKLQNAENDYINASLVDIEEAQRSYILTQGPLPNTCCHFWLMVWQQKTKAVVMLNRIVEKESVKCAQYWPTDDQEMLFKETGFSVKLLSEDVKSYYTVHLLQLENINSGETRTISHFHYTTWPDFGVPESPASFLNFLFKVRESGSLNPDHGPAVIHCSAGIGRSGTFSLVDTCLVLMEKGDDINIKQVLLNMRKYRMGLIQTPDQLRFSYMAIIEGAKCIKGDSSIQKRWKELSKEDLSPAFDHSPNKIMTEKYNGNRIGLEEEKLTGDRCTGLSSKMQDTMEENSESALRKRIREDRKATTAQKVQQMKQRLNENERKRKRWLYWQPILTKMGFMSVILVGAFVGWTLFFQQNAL
Assay: PTP1B and TCPTP Inhibition Assay
Experimental: For each concentration of test compound or DMSO control, the initial rates were used to fit the rectangular hyperbola of Michaelis-Menten by nonlinear regression analysis. The ratio of the apparent Km/Vmax vs inhibitor concentration was plotted, and the Ki was calculated by linear regression to be the negative X-intercept.

With `CCCCCNC(=O)[C@H](Cc1ccc(N(C(=O)C(=O)O)c2ccccc2C(=O)O)c(/C=C/C(N)=O)c1)NS(C)(=O)=O` [2-{[2-(2-Carbamoylvinyl)-4-(2-(S)-methanesulfonylamino 2-pentylcarbamoylethyl)phenyl]oxalylamino}-benzoic Acid] the Ki was 160 nM.
